Tests used:
Conditions in all cases: 72 h
[1] = system: Caco-2; experiment: cell viability relative to DMSO; higher = less toxic
[2] = system: Calu-3; experiment: as above
[3] = system: Vero E6; experiment: as above
[4] = system: U2OS; experiment: as above
[5] = system: Caco-2; experiment: drug sensitivity score (DSS) for viability; higher = more toxic; extreme values may be limits of the assay
[6] = system: Calu-3; experiment: as above
[7] = system: Vero E6; experiment: as above
[8] = system: U2OS; experiment: as above
[9] = system: Caco-2; experiment: relative viability EC50 (midpoint between 100% and the lowest measured viability); higher = less toxic
[10] = system: Calu-3; experiment: as above
[11] = system: Vero E6; experiment: as above
[12] = system: U2OS; experiment: as above
[13] = system: HepG2; experiment: cell viability relative to DMSO; higher = less toxic
[14] = system: HepG2; experiment: drug sensitivity score (DSS) for viability; higher = more toxic; extreme values may be limits of the assay
[15] = system: HepG2; experiment: relative viability EC50 (midpoint between 100% and the lowest measured viability); higher = less toxic

| Compound | cell viability ([1]; 1 nM) [%] | cell viability ([1]; 10 nM) [%] | cell viability ([1]; 100 nM) [%] | cell viability ([1]; 1000 nM) [%] | cell viability ([1]; 10000 nM) [%] | cell viability ([2]; 1 nM) [%] | cell viability ([2]; 10 nM) [%] | cell viability ([2]; 100 nM) [%] | cell viability ([2]; 1000 nM) [%] | cell viability ([2]; 10000 nM) [%] | cell viability ([3]; 1 nM) [%] | cell viability ([3]; 10 nM) [%] | cell viability ([3]; 100 nM) [%] | cell viability ([3]; 1000 nM) [%] | cell viability ([3]; 10000 nM) [%] | cell viability ([4]; 1 nM) [%] | cell viability ([4]; 10 nM) [%] | cell viability ([4]; 100 nM) [%] | cell viability ([4]; 1000 nM) [%] | cell viability ([4]; 10000 nM) [%] | drug sensitivity score [5] | drug sensitivity score [6] | drug sensitivity score [7] | drug sensitivity score [8] | relative viability EC50 [9] [µM] | relative viability EC50 [10] [µM] | relative viability EC50 [11] [µM] | relative viability EC50 [12] [µM] | cell viability ([13]; 1 nM) [%] | cell viability ([13]; 10 nM) [%] | cell viability ([13]; 100 nM) [%] | cell viability ([13]; 1000 nM) [%] | cell viability ([13]; 10000 nM) [%] | drug sensitivity score [14] | relative viability EC50 [15] [µM] |
| --- | --- | --- | --- | --- | --- | --- | --- | --- | --- | --- | --- | --- | --- | --- | --- | --- | --- | --- | --- | --- | --- | --- | --- | --- | --- | --- | --- | --- | --- | --- | --- | --- | --- | --- | --- |
| CCC1=C[C@@H]2CN3CCc4c([nH]c5ccccc45)[C@@](C(=O)OC)(C2)[C@@H]13 [catharanthine] | 93.7 | 92.6 | 95.9 | 103 | 91.9 | 98.5 | 107 | 98.4 | 90.9 | 101 | 103 | 93.4 | 98.4 | 101 | 110 | 92.3 | 100 | 95.7 | 97.1 | 98.4 | 0 | 0 | 0 | 0 | > 10 | > 10 | > 10 | > 10 | – | – | – | – | – | – | – |
| CCC(=O)O[C@]1(C(=O)CCl)[C@@H](C)C[C@H]2[C@@H]3CCC4=CC(=O)C=C[C@]4(C)[C@@]3(F)[C@@H](O)C[C@@]21C [clobetasol-propionate] | – | – | – | – | – | 91.5 | 96 | 82.2 | 94 | 89.7 | 99.6 | 96.5 | 107 | 93.4 | 95.2 | 95.7 | 95.7 | 93.1 | 90.7 | 91.2 | – | 0 | 0 | 0 | – | > 10 | > 10 | > 10 | 107 | 105 | 94.5 | 99.4 | 77.8 | 0.8 | > 10 |
| C[C@]12CC[C@H](O)CC1=CC[C@@H]1[C@@H]2CC[C@]2(C)C(n3cnc4ccccc43)=CC[C@@H]12 [galeterone] | 95.6 | 102 | 89.1 | 88.3 | 45.9 | 91.9 | 95 | 85.5 | 99.6 | 90.2 | 100 | 99 | 102 | 99.2 | 74.5 | 96.4 | 102 | 93.4 | 95.1 | 92.9 | 4.6 | 0 | 1.1 | 0 | 1.72 | > 10 | – | > 10 | 97.8 | 102 | 97.5 | 99.3 | 77.4 | 0.9 | > 10 |
| CC(C)(CO)CCCCCCC(C)(C)CO [gemcadiol] | 89.7 | 129 | 113 | 128 | 92.2 | 97.4 | 93.5 | 100 | 94.3 | 105 | 93.8 | 102 | 102 | 103 | 108 | 97 | 94.5 | 103 | 96.8 | 98.7 | 0 | 0 | 0 | 0 | > 10 | > 10 | > 10 | > 10 | – | – | – | – | – | – | – |
| N[C@@H](CCC(=O)N[C@@H](CS)C(=O)NCC(=O)O)C(=O)O [glutathione] | 92.7 | 90.7 | 105 | 93.6 | 99.4 | 98.1 | 93.2 | 98.8 | 101 | 99.7 | – | – | – | – | – | 95.3 | 97.3 | 99.5 | 96.6 | 102 | 0 | 0 | – | 0 | > 10 | > 10 | – | > 10 | 108 | 106 | 97.3 | 99.3 | 104 | 0 | > 10 |
| Clc1ccc(C(Cn2ccnc2)OCc2c(Cl)cccc2Cl)c(Cl)c1 (stereo not given) [isoconazole] | 97 | 96.4 | 96.8 | 100 | 71.7 | 95.8 | 97.9 | 105 | 98.5 | 84.2 | 102 | 101 | 97.7 | 95.7 | 101 | 104 | 103 | 122 | 110 | 92 | 1.2 | 0.4 | 0 | 0 | – | > 10 | > 10 | > 10 | – | – | – | – | – | – | – |
| CO/N=C1\C[C@]2(C[C@@H]3C[C@@H](C/C=C(\C)C[C@@H](C)/C=C/C=C4\CO[C@@H]5[C@H](O)C(C)=C[C@@H](C(=O)O3)[C@]45O)O2)O[C@H](/C(C)=C/C(C)C)[C@H]1C [moxidectin] | 95.3 | 94 | 102 | 88.2 | 62.1 | 90.7 | 97.3 | 94.2 | 103 | 89.8 | 96.4 | 96.9 | 88.7 | 96.4 | 101 | 103 | 92.1 | 93.5 | 94.6 | 94.7 | 3.6 | 0 | 0 | 0 | – | > 10 | > 10 | > 10 | 101 | 106 | 102 | 105 | 96.7 | 0 | > 10 |
| C#C[C@]1(OC(C)=O)CC[C@H]2[C@@H]3CCC4=CC(=O)CC[C@@H]4[C@H]3CC[C@@]21C [norethindrone-acetate] | 91.8 | 97.1 | 84.7 | 95 | 70.4 | 93.2 | 82.9 | 90.8 | 104 | 95.6 | 104 | 108 | 110 | 90.5 | 98.1 | 100 | 99.6 | 98.5 | 98.5 | 94.9 | 2.3 | 0 | 0 | 0 | – | > 10 | > 10 | > 10 | – | – | – | – | – | – | – |
| O/N=C/c1cc[n+](COC[n+]2ccc(/C=N/O)cc2)cc1 [obidoxime] | 94.5 | 99.4 | 94.4 | 94.7 | 94.6 | 102 | 91.8 | 100 | 84.1 | 106 | – | – | – | – | – | 97.2 | 101 | 94.9 | 95.2 | 102 | 0 | 0 | – | 0 | > 10 | > 10 | – | > 10 | – | – | – | – | – | – | – |
| Cc1cn2nc([C@@H]3CCCCN3C(=O)c3cc(Cl)ccc3NS(C)(=O)=O)cc2nc1N1CC[C@H](N)C1 [presatovir] | 93.8 | 95.2 | 102 | 96.2 | 53.9 | 102 | 107 | 102 | 94 | 98.5 | 98.8 | 103 | 94.4 | 96.8 | 102 | 101 | 97 | 100 | 98.3 | 76.6 | 3 | 0 | 0 | 1.1 | – | > 10 | > 10 | > 10 | 98.8 | 110 | 104 | 106 | 105 | 0 | > 10 |
| CC(C)(C)Sc1c(CC(C)(C)C(=O)O)n(Cc2ccc(Cl)cc2)c2ccc(OCc3ccc4ccccc4n3)cc12 [quiflapon] | 104 | 102 | 97 | 96 | 102 | 91.5 | 97.3 | 98.7 | 102 | 110 | – | – | – | – | – | 102 | 108 | 104 | 99.6 | 109 | 0 | 0 | – | 0 | > 10 | > 10 | – | > 10 | 105 | 95.6 | 96.8 | 98.3 | 104 | 0 | > 10 |
| O=C(/C=C/c1ccccc1)NC(NC(=S)Nc1cccc2cccnc12)C(Cl)(Cl)Cl (stereo not given) [salubrinal] | 126 | 102 | 96.7 | 103 | 80.1 | 99.4 | 100 | 97.6 | 109 | 87.1 | – | – | – | – | – | 98.3 | 107 | 101 | 102 | 91.1 | 0.4 | 0 | – | 0 | > 10 | > 10 | – | > 10 | 107 | 111 | 99.1 | 101 | 108 | 0 | > 10 |
| O=C1c2ccc(Nc3ccc(F)cc3F)cc2CCc2ccc(OC[C@H](O)CO)cc21 [skepinone-L] | 103 | 84.1 | 89.2 | 91.7 | 73.4 | 97.2 | 94 | 96.2 | 101 | 94.7 | 103 | 103 | 86.8 | 89.4 | 80.3 | 96.5 | 91.8 | 91.4 | 90.2 | 89.5 | 2.5 | 0 | 1.9 | 0.1 | – | > 10 | > 10 | > 10 | 102 | 109 | 98.8 | 101 | 75.2 | 0.8 | > 10 |
| Cc1nnc(NS(=O)(=O)c2ccc(N)cc2)s1 [sulfamethizole] | 88.1 | 85.7 | 98.9 | 93.6 | 99 | 96.3 | 98.4 | 96.7 | 99.2 | 105 | – | – | – | – | – | 103 | 98.1 | 103 | 99.2 | 99.2 | 0 | 0 | – | 0 | > 10 | > 10 | – | > 10 | 102 | 111 | 98 | 108 | 90.4 | 0 | > 10 |
| Cc1cn([C@H]2C[C@H](N=[N+]=[N-])[C@@H](CO)O2)c(=O)[nH]c1=O [zidovudine] | 94.9 | 92.6 | 105 | 98 | 98 | 107 | 89.6 | 101 | 98.9 | 103 | – | – | – | – | – | 103 | 104 | 95.2 | 103 | 94.3 | 0 | 0 | – | 0 | > 10 | > 10 | – | > 10 | 101 | 109 | 99 | 94.6 | 104 | 0 | > 10 |

Source: the supplement of paper PMC13380429
